We go through five molecules from patent US20120046302A1, “METHODS OF TREATING CNS DISORDERS” (priority 2008, published 2012).

Where a name gives a salt, the structure may show the parent alone.

Assay [1] has as its system NMDA receptor. The conditions noted are these: noncompetitive NMDA receptor antagonists; background; cited from earlier work.
Assay [2] concerns patients with bipolar I disorder experiencing a manic or mixed episode. As to the kind of experiment: Multicenter, open-label study of memantine hydrochloride in acute treatment of hospitalized patients with bipolar I disorder (Example 1). In kind it is in vivo, human. Conditions: for MRS Total Score, Change at Day 21 (LOCF), Mean ± SEM / YMRS Total Score, Change at Day 21 (LOCF), Mean ± SEM / MRS Total Score, Change at Day 21 (OC), Mean ± SEM / YMRS Total Score, Change at Day 21 (OC), Mean ± SEM / CGI-I Rating, Day 21, Mean ± SEM / CGI-S Rating, Change at Day 21, Mean ± SEM / MADRS Total Score, Change at Day 21, Mean ± SEM / PANSS Total Score, Change at Day 21, Mean ± SEM / PANSS-EC Score, Change at Day 21, Mean ± SEM: 21 days; for MRS Total Score, Change at Day 21 (LOCF), Mean ± SEM / YMRS Total Score, Change at Day 21 (LOCF), Mean ± SEM / CGI-I Rating, Day 21, Mean ± SEM / CGI-S Rating, Change at Day 21, Mean ± SEM / MADRS Total Score, Change at Day 21, Mean ± SEM / PANSS Total Score, Change at Day 21, Mean ± SEM / PANSS-EC Score, Change at Day 21, Mean ± SEM / MRS Response, % of patients / MRS Response, n of patients / YMRS Response, % of patients / YMRS Response, n of patients: ITT; for MRS Total Score, Change at Day 21 (OC), Mean ± SEM / YMRS Total Score, Change at Day 21 (OC), Mean ± SEM: observed cases; for CGI-I Rating, Day 21, Mean ± SEM / CGI-S Rating, Change at Day 21, Mean ± SEM / MADRS Total Score, Change at Day 21, Mean ± SEM / PANSS Total Score, Change at Day 21, Mean ± SEM / PANSS-EC Score, Change at Day 21, Mean ± SEM / MRS Response, % of patients / MRS Response, n of patients / YMRS Response, % of patients / YMRS Response, n of patients: LOCF; for MRS Response, % of patients / MRS Response, n of patients / YMRS Response, % of patients / YMRS Response, n of patients: Day 21, response = ≧50% reduction in total score from baseline. The source says:
The entrance criteria for the patients included: Hospitalized adult inpatients, with bipolar I disorder by DSM-IV-TR criteria • Manic or mixed episode: ≧20 on the Young Mania Rating Scale (YMRS), with and without psychotic features; • Diagnosis based on clinical evaluation and confirmed using the Structured Clinical Interview for DSM Disorders. The following comorbid psychiatric diagnoses were allowed to enroll: Attention deficit hyperactivity disorder [ADHD], conduct disorder, obsessive-compulsive disorder, anxiety disorders, and substance abuse. Additional psychotropic medications were not allowed. Patients were assigned to 21-days of treatment in one of three groups: Group 1, 20 mg memantine hydrochloride per day (range 20-30 mg memantine per day); Group 2, 30 mg memantine hydrochloride per day (range 20-40 mg memantine per day); Group 3, 40 mg memantine hydrochloride per day (range 30-50 mg memantine per day). […] Dose modification was continued to study completion or early termination. Efficacy measures included the Young Mania Rating Scale (YMRS) and the Mania Rating Scale (MRS) (≧50% reduction in total score from baseline). The change from baseline was also assessed using the Positive and Negative Syndrome Scale (PANSS) in patients with psychiatric symptoms, Positive and Negative Syndrome Scale-Excited Component (PANSS-EC), Clinical Global Impression Severity (CGI-S) and Improvement (CGI-I) scores, and the change from baseline in the Montgomery Asberg Depression Rating Scale (MADRS). […] The mean duration of treatment was 16.1 days (Group I), 14.7 days (Group 2) and 17.3 days (Group 3).

The test system of assay [3] is ICV ouabain-induced motoric hyperactivity. The conditions noted are these: ouabain treated (ICV) versus sham 53.1±SD 50.0; El-Mallakh et al. 2003; cited from earlier work.
The target of assay [4] is T1, 5-HT2C (Homo sapiens, UniProt P28335).
T1 sequence (P28335 33-458): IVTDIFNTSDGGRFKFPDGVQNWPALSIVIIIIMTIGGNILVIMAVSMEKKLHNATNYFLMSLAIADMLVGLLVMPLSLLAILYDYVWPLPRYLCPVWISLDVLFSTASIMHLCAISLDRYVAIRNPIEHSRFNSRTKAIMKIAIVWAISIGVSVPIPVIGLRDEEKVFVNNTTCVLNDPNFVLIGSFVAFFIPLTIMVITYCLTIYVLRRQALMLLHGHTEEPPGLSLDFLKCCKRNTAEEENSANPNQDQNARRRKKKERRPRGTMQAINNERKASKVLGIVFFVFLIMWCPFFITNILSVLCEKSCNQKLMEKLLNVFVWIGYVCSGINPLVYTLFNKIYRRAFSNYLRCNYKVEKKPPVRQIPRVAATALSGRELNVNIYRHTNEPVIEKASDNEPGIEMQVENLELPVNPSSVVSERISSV
Conditions: background; cited from earlier work.

The target in assay [5] is histamine H1 (Homo sapiens, UniProt P35367). Conditions: background; cited from earlier work.
For assay [6], the system named is adrenergic receptor sites. Conditions: background; cited from earlier work.
[7] abbreviates: Group 1: 20 mg per day (range 20-30 mg), n=12.
Where [8] appears, read: Group 1: 20 mg per day (range 20-30 mg), n=6.
The mark [9] stands for this setting: Group 2: 30 mg per day (range 20-40 mg), n=11.
The mark [10] stands for this setting: Group 2: 30 mg per day (range 20-40 mg), n=6.
[11] abbreviates: Group 3: 40 mg per day (range 30-50 mg), n=10.
[12] abbreviates: Group 3: 40 mg per day (range 30-50 mg), n=8.

Sequence of histamine H1 (P35367 whole entry): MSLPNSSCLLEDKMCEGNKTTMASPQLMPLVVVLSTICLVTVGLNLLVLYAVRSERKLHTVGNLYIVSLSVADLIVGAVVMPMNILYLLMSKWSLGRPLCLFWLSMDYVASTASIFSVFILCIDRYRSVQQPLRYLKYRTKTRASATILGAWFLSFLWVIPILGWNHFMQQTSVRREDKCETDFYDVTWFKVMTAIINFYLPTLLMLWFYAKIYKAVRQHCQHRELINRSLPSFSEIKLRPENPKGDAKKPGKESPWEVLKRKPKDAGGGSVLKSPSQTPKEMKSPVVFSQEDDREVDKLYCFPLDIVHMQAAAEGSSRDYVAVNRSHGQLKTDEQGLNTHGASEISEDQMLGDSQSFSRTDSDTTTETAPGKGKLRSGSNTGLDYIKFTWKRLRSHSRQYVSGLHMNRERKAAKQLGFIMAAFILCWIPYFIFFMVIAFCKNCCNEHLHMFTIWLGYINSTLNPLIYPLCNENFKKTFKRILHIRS

Consider `CC1(C)CC(C)(C)CC(C)(N)C1` [neramexane, 1-amino-1,3,3,5,5-pentamethylcyclohexane], for which, in assay [1], the “Affinity for the NMDA receptor (in words)” value was “moderate affinity”.

For the molecule `CC12CC3CC(C)(C1)CC(N)(C3)C2` [memantine hydrochloride], in assay [2] (setting [7]), the “MRS Total Score, Change at Day 21 (LOCF), Mean ± SEM” value is listed as −9.8 ± 2.2 and the “YMRS Total Score, Change at Day 21 (LOCF), Mean ± SEM” value is reported as −9.5 ± 2.8. In assay [2] (setting [8]), the “MRS Total Score, Change at Day 21 (OC), Mean ± SEM” value is listed as −15.3 ± 1.7 and the “YMRS Total Score, Change at Day 21 (OC), Mean ± SEM” value was −17.0 ± 1.9. For the same molecule, in assay [2] (Group 1: 20 mg per day, n=12), the “CGI-I Rating, Day 21, Mean ± SEM” value amounted to 3.3 ± 0.5; the “CGI-S Rating, Change at Day 21, Mean ± SEM” value is given as −0.8 ± 0.3; the “MADRS Total Score, Change at Day 21, Mean ± SEM” value is reported as −3.4 ± 1.8; the “PANSS Total Score, Change at Day 21, Mean ± SEM” value is −5.1 ± 3.9. Moreover, in assay [2] (Group 1: 20 mg per day, n=12), the “PANSS-EC Score, Change at Day 21, Mean ± SEM” value is −0.7 ± 1.5; the “MRS Response, % of patients” value amounted to 50.0%; the “MRS Response, n of patients” value worked out at 6 n; the “YMRS Response, % of patients” value is reported as 50.0%. In assay [2] (Group 1: 20 mg per day, n=12), the “YMRS Response, n of patients” value stood at 6 n. In addition, in assay [2] (setting [9]), the “MRS Total Score, Change at Day 21 (LOCF), Mean ± SEM” value is listed as −7.4 ± 2.6 and the “YMRS Total Score, Change at Day 21 (LOCF), Mean ± SEM” value is on record as −6.4 ± 3.8. For the same molecule, in assay [2] (setting [10]), the “MRS Total Score, Change at Day 21 (OC), Mean ± SEM” value is reported as −13.0 ± 2.1 and the “YMRS Total Score, Change at Day 21 (OC), Mean ± SEM” value was −15.5 ± 1.5. In assay [2] (Group 2: 30 mg per day, n=11), the “CGI-I Rating, Day 21, Mean ± SEM” value is listed as 3.6 ± 0.5; the “CGI-S Rating, Change at Day 21, Mean ± SEM” value is on record as −0.7 ± 0.4; the “MADRS Total Score, Change at Day 21, Mean ± SEM” value is on record as 0.0 ± 2.7; the “PANSS Total Score, Change at Day 21, Mean ± SEM” value is −1.5 ± 5.8. Further, in assay [2] (Group 2: 30 mg per day, n=11), the “PANSS-EC Score, Change at Day 21, Mean ± SEM” value is −0.5 ± 1.8; the “MRS Response, % of patients” value came out at 27.3%; the “MRS Response, n of patients” value was 3 n; the “YMRS Response, % of patients” value stood at 45.5%. The “YMRS Response, n of patients” value in assay [2] (Group 2: 30 mg per day, n=11) was found to be 5 n. Moreover, in assay [2] (setting [11]), the “MRS Total Score, Change at Day 21 (LOCF), Mean ± SEM” value is reported as −7.2 ± 2.0 and the “YMRS Total Score, Change at Day 21 (LOCF), Mean ± SEM” value is −7.9 ± 2.4. Besides, in assay [2] (setting [12]), the “MRS Total Score, Change at Day 21 (OC), Mean ± SEM” value is given as −9.3 ± 1.8 and the “YMRS Total Score, Change at Day 21 (OC), Mean ± SEM” value is recorded as −10 ± 2.3. In addition, in assay [2] (Group 3: 40 mg per day, n=10), the “CGI-I Rating, Day 21, Mean ± SEM” value was determined as 2.9 ± 0.5; the “CGI-S Rating, Change at Day 21, Mean ± SEM” value is −0.6 ± 0.3; the “MADRS Total Score, Change at Day 21, Mean ± SEM” value is −3.3 ± 1.7; the “PANSS Total Score, Change at Day 21, Mean ± SEM” value is recorded as −7.7 ± 3.8. Besides, in assay [2] (Group 3: 40 mg per day, n=10), the “PANSS-EC Score, Change at Day 21, Mean ± SEM” value was −0.7 ± 1.4; the “MRS Response, % of patients” value worked out at 10.0%; the “MRS Response, n of patients” value amounted to 1 n; the “YMRS Response, % of patients” value was 30.0%. Besides, the “YMRS Response, n of patients” value in assay [2] (Group 3: 40 mg per day, n=10) is 3 n. Further, the “Effectiveness in the treatment of acute mania associated with bipolar disorder (in words)” value in assay [2] (overall conclusion of Example 1) was “surprisingly effective”.

As for `CC12CC3CC(C)(C1)CC(N)(C3)C2` [Memantine, 1-amino-3,5-dimethyl adamantane], the “Affinity for the NMDA receptor (in words)” value in assay [1] was “moderate affinity”.

As for `C[C@@H]1O[C@@H](O[C@H]2C[C@@H](O)[C@]3(CO)[C@H]4[C@H](O)C[C@]5(C)[C@@H](C6=CC(=O)OC6)CC[C@]5(O)[C@@H]4CC[C@]3(O)C2)[C@H](O)[C@H](O)[C@H]1O` [ouabain], the “Open field exploratory activity” value in assay [3] is 258.7±316.6 squares traversed.

Turning to `CN(C)C(=O)N[C@H]1CC[C@H](CCN2CCN(c3cccc(Cl)c3Cl)CC2)CC1` [Cariprazine hydrochloride, trans-1-{4-[2-[4-(2,3-dichlorophenyl)-piperazin-1-yl]-ethyl]-cyclohexyl}-3,3-dimethyl-urea hydrochloride], the “Potency at 5-HT2C receptor site (in words)” value in assay [4] is recorded as “low potency”. Besides, the “Potency at histamine H1 receptor site (in words)” value in assay [5] is recorded as “low potency”. For the same molecule, in assay [6], the “Potency at adrenergic receptor sites (in words)” value is reported as “low potency”.
